According to PubChem BioAssay AID1919005 (Molecular Pharmacology Branch, DTP, NCI, 2023):
pIC50: −log10 of the molar value. Several values for one entry are separate records, joined by “and”; a condition that tells them apart may be missing. Equal values may be shown once. One block for each compound: values may come before it.

Test system: 855422-203-R-J1-PDC complex spheroid growth
Assay: Anticancer human tumor 855422-203-R-J1-PDC patient-derived bladder carcinoma cell line growth inhibition [AhR]
Settings: for viability, T/C: stronger effect = lower value
Outline: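 Spheroids combined tumor cells with HUVEC endothelial cells and human MSCs as stroma. AhR antagonists were paired with standard or investigational drugs, each dosed in half-log steps down from near clinical Cmax, or from 10 microM where Cmax was unknown.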

[1] = curve of first compound, second compound 0.1 µM
[2] = curve of first compound, second compound 0.316 µM
[3] = curve of first compound, second compound 1 µM
[4] = curve of first compound, second compound 3.16 µM
[5] = curve of first compound, second compound 10 µM
[6] = second compound 0.1 µM, first compound 0.0316 µM
[7] = second compound 0.1 µM, first compound 0.1 µM
[8] = second compound 0.316 µM, first compound 0.0316 µM
[9] = second compound 0.316 µM, first compound 0.1 µM
[10] = second compound 1 µM, first compound 0.0316 µM
[11] = second compound 1 µM, first compound 0.1 µM
[12] = second compound 3.16 µM, first compound 0.0316 µM
[13] = second compound 3.16 µM, first compound 0.1 µM
[14] = second compound 10 µM, first compound 0.0316 µM
[15] = second compound 10 µM, first compound 0.1 µM
[16] = second compound 0.1 µM, first compound 0.316 µM
[17] = second compound 0.1 µM, first compound 1 µM
[18] = second compound 0.1 µM, first compound 3.16 µM
[19] = second compound 0.1 µM, first compound 10 µM
[20] = second compound 0.316 µM, first compound 0.316 µM
[21] = second compound 0.316 µM, first compound 1 µM
[22] = second compound 0.316 µM, first compound 3.16 µM
[23] = second compound 0.316 µM, first compound 10 µM
[24] = second compound 1 µM, first compound 0.316 µM
[25] = second compound 1 µM, first compound 1 µM
[26] = second compound 1 µM, first compound 3.16 µM
[27] = second compound 1 µM, first compound 10 µM
[28] = second compound 3.16 µM, first compound 0.316 µM
[29] = second compound 3.16 µM, first compound 1 µM
[30] = second compound 3.16 µM, first compound 3.16 µM
[31] = second compound 3.16 µM, first compound 10 µM
[32] = second compound 10 µM, first compound 0.316 µM
[33] = second compound 10 µM, first compound 1 µM
[34] = second compound 10 µM, first compound 3.16 µM
[35] = second compound 10 µM, first compound 10 µM
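Note: spheroids exposed to agents for seven days before readout.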
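Throughout, for viability, T/C: percent of DMSO vehicle control luminescence viability.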

Structure (SMILES): Cn1ncnc1C1c2n[nH]c(=O)c3cc(F)cc(c23)NC1c1ccc(F)cc1 (stereo not given) + Cc1cncc(-c2nc(NCCc3c[nH]c4ccccc34)c3ncn(C(C)C)c3n2)c1
pIC50 [1]: < 7.00
pIC50 [2]: < 7.00
pIC50 [3]: < 7.00
pIC50 [4]: < 7.00
pIC50 [5]: > 9.50
viability, T/C (second compound 0.1 µM, first compound 0.000316 µM): 84.1%
viability, T/C (second compound 0.1 µM, first compound 0.001 µM): 85.3%
viability, T/C (second compound 0.1 µM, first compound 0.00316 µM): 87.6%
viability, T/C (second compound 0.1 µM, first compound 0.01 µM): 95.9%
viability, T/C [6]: 87.8%
viability, T/C [7]: 88.2%
viability, T/C (second compound 0.316 µM, first compound 0.000316 µM): 91.7%
viability, T/C (second compound 0.316 µM, first compound 0.001 µM): 80.8%
viability, T/C (second compound 0.316 µM, first compound 0.00316 µM): 73.1%
viability, T/C (second compound 0.316 µM, first compound 0.01 µM): 88.5%
viability, T/C [8]: 90.3%
viability, T/C [9]: 81.6%
viability, T/C (second compound 1 µM, first compound 0.000316 µM): 81.3%
viability, T/C (second compound 1 µM, first compound 0.001 µM): 86.2%
viability, T/C (second compound 1 µM, first compound 0.00316 µM): 76.4%
viability, T/C (second compound 1 µM, first compound 0.01 µM): 78.3%
viability, T/C [10]: 77.2%
viability, T/C [11]: 84%
viability, T/C (second compound 3.16 µM, first compound 0.000316 µM): 67.6%
viability, T/C (second compound 3.16 µM, first compound 0.001 µM): 74.4%
viability, T/C (second compound 3.16 µM, first compound 0.00316 µM): 71.4%
viability, T/C (second compound 3.16 µM, first compound 0.01 µM): 56.6%
viability, T/C [12]: 76.9%
viability, T/C [13]: 75.2%
viability, T/C (second compound 10 µM, first compound 0.000316 µM): 30.7%
viability, T/C (second compound 10 µM, first compound 0.001 µM): 29.6%
viability, T/C (second compound 10 µM, first compound 0.00316 µM): 21.5%
viability, T/C (second compound 10 µM, first compound 0.01 µM): 5.12%
viability, T/C [14]: 23.6%
viability, T/C [15]: 26.1%

Structure (SMILES): Cc1cncc(-c2nc(NCCc3c[nH]c4ccccc34)c3ncn(C(C)C)c3n2)c1
viability, T/C (compound 0.1 µM): 92.2% [middle of 19 runs]
viability, T/C (compound 1 µM): 86.3% [middle of 20 runs]
IC50 (compound alone, run of 06/06/2022): 5.43 µM [middle of 22 runs]

Structure (SMILES): NS(=O)(=O)OCC1CC(n2ccc3c(NC4CCc5ccccc54)ncnc32)CC1O (stereo not given) + Cc1ccccc1N=Nc1ccc(NC(=O)c2ccnn2C)c(C)c1
pIC50 [1]: 5.52
pIC50 [2]: 5.60
pIC50 [3]: 5.71
pIC50 [4]: 5.99
pIC50 [5]: 6.32
viability, T/C [6]: 104%
viability, T/C [7]: 110%
viability, T/C [16]: 124%
viability, T/C [17]: 98.5%
viability, T/C [18]: 48.5%
viability, T/C [19]: 16.3%
viability, T/C [8]: 102%
viability, T/C [9]: 113%
viability, T/C [20]: 120%
viability, T/C [21]: 90.3%
viability, T/C [22]: 40.9%
viability, T/C [23]: 16.5%
viability, T/C [10]: 101%
viability, T/C [11]: 115%
viability, T/C [24]: 109%
viability, T/C [25]: 77.7%
viability, T/C [26]: 31.1%
viability, T/C [27]: 15.3%
viability, T/C [12]: 105%
viability, T/C [13]: 110%
viability, T/C [28]: 78.8%
viability, T/C [29]: 54.2%
viability, T/C [30]: 20.7%
viability, T/C [31]: 12%
viability, T/C [14]: 73.8%
viability, T/C [15]: 80.2%
viability, T/C [32]: 56.5%
viability, T/C [33]: 35.2%
viability, T/C [34]: 13.6%
viability, T/C [35]: 12.1%

Structure (SMILES): CC1(C)CCC(CN2CCN(c3ccc(C(=O)NS(=O)(=O)c4ccc(NCC5CCOCC5)c([N+](=O)[O-])c4)c(Oc4cnc5[nH]ccc5c4)c3)CC2)=C(c2ccc(Cl)cc2)C1 + CC(CO)NC(=O)c1cc(-c2ccc(Cl)cc2)nn(-c2cnn(C)c2)c1=O
pIC50 [1]: 5.21
pIC50 [2]: 5.21
pIC50 [3]: 5.20
pIC50 [4]: 5.20
pIC50 [5]: 5.23
viability, T/C [6]: 104%
viability, T/C [7]: 100%
viability, T/C [16]: 110%
viability, T/C [17]: 97.8%
viability, T/C [18]: 102%
viability, T/C [19]: 11.8%
viability, T/C [8]: 97.3%
viability, T/C [9]: 96.9%
viability, T/C [20]: 109%
viability, T/C [21]: 100%
viability, T/C [22]: 109%
viability, T/C [23]: 12.3%
viability, T/C [10]: 101%
viability, T/C [11]: 103%
viability, T/C [24]: 103%
viability, T/C [25]: 109%
viability, T/C [26]: 106%
viability, T/C [27]: 13.2%
viability, T/C [12]: 104%
viability, T/C [13]: 111%
viability, T/C [28]: 108%
viability, T/C [29]: 103%
viability, T/C [30]: 105%
viability, T/C [31]: 12.3%
viability, T/C [14]: 94.8%
viability, T/C [15]: 104%
viability, T/C [32]: 88.3%
viability, T/C [33]: 101%
viability, T/C [34]: 93.9%
viability, T/C [35]: 13.7%

Further lines, with some results ahead:

pIC50 [1]: 8.28
pIC50 [2]: 8.35
pIC50 [3]: 8.47
pIC50 [4]: 8.72
pIC50 [5]: 8.83
Structure (SMILES): CCc1c2c(nc3ccc(O)cc13)-c1cc3c(c(=O)n1C2)COC(=O)[C@]3(O)CC + CC(CO)NC(=O)c1cc(-c2ccc(Cl)cc2)nn(-c2cnn(C)c2)c1=O
viability, T/C (second compound 0.1 µM, first compound 0.000949 µM): 95.5%
viability, T/C (second compound 0.1 µM, first compound 0.003 µM): 78.9%
viability, T/C (second compound 0.1 µM, first compound 0.00949 µM): 19.4%
viability, T/C (second compound 0.1 µM, first compound 0.03 µM): 13.2%
viability, T/C (second compound 0.1 µM, first compound 0.0949 µM): 9.5%
viability, T/C (second compound 0.1 µM, first compound 0.3 µM): 6.28%
viability, T/C (second compound 0.316 µM, first compound 0.000949 µM): 85.6%
viability, T/C (second compound 0.316 µM, first compound 0.003 µM): 68.7%
viability, T/C (second compound 0.316 µM, first compound 0.00949 µM): 15.6%
viability, T/C (second compound 0.316 µM, first compound 0.03 µM): 12.3%
viability, T/C (second compound 0.316 µM, first compound 0.0949 µM): 6.86%
viability, T/C (second compound 0.316 µM, first compound 0.3 µM): 4.21%
viability, T/C (second compound 1 µM, first compound 0.000949 µM): 86.5%
viability, T/C (second compound 1 µM, first compound 0.003 µM): 54.7%
viability, T/C (second compound 1 µM, first compound 0.00949 µM): 13.9%
viability, T/C (second compound 1 µM, first compound 0.03 µM): 11%
viability, T/C (second compound 1 µM, first compound 0.0949 µM): 6.82%
viability, T/C (second compound 1 µM, first compound 0.3 µM): 4.24%
viability, T/C (second compound 3.16 µM, first compound 0.000949 µM): 72.2%
viability, T/C (second compound 3.16 µM, first compound 0.003 µM): 36.3%
viability, T/C (second compound 3.16 µM, first compound 0.00949 µM): 12.8%
viability, T/C (second compound 3.16 µM, first compound 0.03 µM): 10.2%
viability, T/C (second compound 3.16 µM, first compound 0.0949 µM): 6.61%
viability, T/C (second compound 3.16 µM, first compound 0.3 µM): 4.22%
viability, T/C (second compound 10 µM, first compound 0.000949 µM): 65.5%
viability, T/C (second compound 10 µM, first compound 0.003 µM): 25.4%
viability, T/C (second compound 10 µM, first compound 0.00949 µM): 12.6%
viability, T/C (second compound 10 µM, first compound 0.03 µM): 9.84%
viability, T/C (second compound 10 µM, first compound 0.0949 µM): 6.11%
viability, T/C (second compound 10 µM, first compound 0.3 µM): 4.31%

pIC50 (curve of compound): 7.22 and 7.14 and 7.02
Structure (SMILES): CC[C@@]1(O)C(=O)OCc2c1cc1n(c2=O)Cc2cc3c(CN(C)C)c(O)ccc3nc2-1
viability, T/C (compound 0.000316 µM): 93% and 97.1% and 101%
viability, T/C (compound 0.001 µM): 114% and 106% (2×)
viability, T/C (compound 0.00316 µM): 98.4% and 103% and 105%
viability, T/C (compound 0.01 µM): 99.3% and 101% and 106%
viability, T/C (compound 0.0316 µM): 85% and 93.4% and 94.9%
viability, T/C (compound 0.1 µM): 22.1% and 33.6% and 47.4%
